Laboratory results published in the NIST ThermoML archive (doi:10.1021/je049610v).
Numbers after ± are expanded uncertainties.

Legend:
[1] = xn = mol fraction of the nth substance listed; conditions: 101 kPa, Liquid
[2] = refractive index (Na D-line) (dimensionless); xn = mol fraction of the nth substance listed; conditions: 101 kPa, Liquid

COc1ccccc1 [anisole] + ClC(Cl)=C(Cl)Cl
x1 = 1
Conditions | mass density, 298.15 K [kg/m3] | mass density, 303.15 K [kg/m3] | mass density, 308.15 K [kg/m3] | refractive index, 298.15 K | refractive index, 303.15 K | refractive index, 308.15 K | speed of sound, 298.15 K [m/s] | viscosity, 298.15 K [mPa·s] | viscosity, 303.15 K [mPa·s] | viscosity, 308.15 K [mPa·s]
[1] | 988.9 ± 2 | 984.1 ± 2.1 | 979.4 ± 2.1 | – | – | – | 1410 ± 8 | 0.992 ± 0.032 | 0.919 ± 0.03 | 0.853 ± 0.028
[2] | – | – | – | 1.5148 ± 0.0024 | 1.5124 ± 0.0024 | 1.5092 ± 0.0024 | – | – | – | –

ClC(Cl)C(Cl)Cl [1,1,2,2-tetrachloroethane] + COc1ccccc1
Conditions | mass density, 298.15 K [kg/m3] | mass density, 303.15 K [kg/m3] | mass density, 308.15 K [kg/m3] | refractive index, 298.15 K | refractive index, 303.15 K | refractive index, 308.15 K | speed of sound, 298.15 K [m/s] | viscosity, 298.15 K [mPa·s] | viscosity, 303.15 K [mPa·s] | viscosity, 308.15 K [mPa·s]
[1], x2 = 0 | 1587.8 ± 3.5 | 1580.6 ± 3.6 | 1573.3 ± 3.6 | – | – | – | 1153 ± 7 | 1.591 ± 0.049 | 1.471 ± 0.045 | 1.361 ± 0.042
[1], x2 = 0.1003 | 1526.3 ± 3.4 | 1519.4 ± 3.4 | 1512.6 ± 3.5 | – | – | – | 1172 ± 7 | 1.555 ± 0.048 | 1.439 ± 0.045 | 1.323 ± 0.041
[1], x2 = 0.2021 | 1464.3 ± 3.2 | 1457.7 ± 3.3 | 1451.2 ± 3.3 | – | – | – | 1193 ± 7 | 1.518 ± 0.047 | 1.404 ± 0.044 | 1.29 ± 0.04
[1], x2 = 0.303 | 1403.1 ± 3 | 1396.9 ± 3.1 | 1390.6 ± 3.2 | – | – | – | 1214 ± 7 | 1.47 ± 0.045 | 1.362 ± 0.042 | 1.253 ± 0.039
[1], x2 = 0.3939 | 1348.3 ± 2.9 | 1342.2 ± 3 | 1336.2 ± 3.1 | – | – | – | 1235 ± 7 | 1.419 ± 0.044 | 1.315 ± 0.041 | 1.21 ± 0.038
[1], x2 = 0.4986 | 1285.5 ± 2.8 | 1279.9 ± 2.8 | 1274 ± 2.9 | – | – | – | 1262 ± 7 | 1.355 ± 0.042 | 1.255 ± 0.039 | 1.155 ± 0.037
[1], x2 = 0.5975 | 1226.5 ± 2.6 | 1221.1 ± 2.7 | 1215.6 ± 2.8 | – | – | – | 1289 ± 7 | 1.292 ± 0.04 | 1.196 ± 0.038 | 1.1 ± 0.035
[1], x2 = 0.6972 | 1167.2 ± 2.5 | 1162.1 ± 2.5 | 1156.9 ± 2.6 | – | – | – | 1317 ± 7 | 1.224 ± 0.039 | 1.131 ± 0.036 | 1.038 ± 0.033
[1], x2 = 0.7983 | 1107.6 ± 2.3 | 1102.7 ± 2.4 | 1097.7 ± 2.5 | – | – | – | 1347 ± 7 | 1.149 ± 0.036 | 1.064 ± 0.034 | 0.979 ± 0.032
[1], x2 = 0.9012 | 1047 ± 2.2 | 1042.8 ± 2.2 | 1037.4 ± 2.3 | – | – | – | 1379 ± 8 | 1.074 ± 0.034 | 0.994 ± 0.032 | 0.914 ± 0.03
[2], x2 = 0 | – | – | – | 1.4922 ± 0.0024 | 1.4894 ± 0.0024 | 1.4865 ± 0.0024 | – | – | – | –
[2], x2 = 0.1003 | – | – | – | 1.4943 ± 0.0024 | 1.4915 ± 0.0024 | 1.4887 ± 0.0024 | – | – | – | –
[2], x2 = 0.2021 | – | – | – | 1.4966 ± 0.0024 | 1.4937 ± 0.0024 | 1.4909 ± 0.0024 | – | – | – | –
[2], x2 = 0.303 | – | – | – | 1.4989 ± 0.0024 | 1.496 ± 0.0024 | 1.4931 ± 0.0024 | – | – | – | –
[2], x2 = 0.3939 | – | – | – | 1.5009 ± 0.0024 | 1.498 ± 0.0024 | 1.4952 ± 0.0024 | – | – | – | –
[2], x2 = 0.4986 | – | – | – | 1.5032 ± 0.0024 | 1.5005 ± 0.0024 | 1.4977 ± 0.0024 | – | – | – | –
[2], x2 = 0.5975 | – | – | – | 1.5055 ± 0.0024 | 1.5028 ± 0.0024 | 1.5 ± 0.0024 | – | – | – | –
[2], x2 = 0.6972 | – | – | – | 1.508 ± 0.0024 | 1.5052 ± 0.0024 | 1.5023 ± 0.0024 | – | – | – | –
[2], x2 = 0.7983 | – | – | – | 1.5105 ± 0.0024 | 1.5076 ± 0.0024 | 1.505 ± 0.0024 | – | – | – | –
[2], x2 = 0.9012 | – | – | – | 1.5129 ± 0.0024 | 1.51 ± 0.0024 | 1.5072 ± 0.0024 | – | – | – | –

CN(C)C=O [dimethylformamide] + COc1ccccc1
x2 = 0
Conditions | mass density, 298.15 K [kg/m3] | mass density, 303.15 K [kg/m3] | mass density, 308.15 K [kg/m3] | refractive index, 298.15 K | refractive index, 303.15 K | refractive index, 308.15 K | speed of sound, 298.15 K [m/s] | viscosity, 298.15 K [mPa·s] | viscosity, 303.15 K [mPa·s] | viscosity, 308.15 K [mPa·s]
[1] | 943.9 ± 1.8 | 939.5 ± 1.9 | 935 ± 2 | – | – | – | 1462 ± 8 | 0.801 ± 0.026 | 0.754 ± 0.025 | 0.711 ± 0.024
[2] | – | – | – | 1.4288 ± 0.0024 | 1.4264 ± 0.0024 | 1.4238 ± 0.0024 | – | – | – | –

C[S+](C)[O-] [dimethyl sulfoxide] + COc1ccccc1
x2 = 0
Conditions | mass density, 298.15 K [kg/m3] | mass density, 303.15 K [kg/m3] | mass density, 308.15 K [kg/m3] | refractive index, 298.15 K | refractive index, 303.15 K | refractive index, 308.15 K | speed of sound, 298.15 K [m/s] | viscosity, 298.15 K [mPa·s] | viscosity, 303.15 K [mPa·s] | viscosity, 308.15 K [mPa·s]
[1] | 1095.4 ± 2.3 | 1090.8 ± 2.3 | 1086.2 ± 2.4 | – | – | – | 1493 ± 8 | 1.984 ± 0.06 | 1.801 ± 0.055 | 1.651 ± 0.05
[2] | – | – | – | 1.4768 ± 0.0064 | 1.4594 ± 0.0064 | 1.4547 ± 0.0064 | – | – | – | –
